Experiments:
[1] = Free radical trapping, DCF oxidation, ferrous iron system; assay type: biochemical; settings: 100 μM test compound, 100 μM FeSO4, 50 μM DCF in MEM, 37° C., 2 hrs
Protocol: (§1) Dichlorofluorescein (DCF) is a compound that fluoresces when oxidized by reactive oxygen species (ROS), such as hydroxyl, peroxyl, or alkoxyl free radicals. Test compounds were evaluated for their ability to scavenge radicals by determining their capacity to prevent the DCF oxidation in a radical generating environment. Two radical generating systems were used: (i) ferrous iron and (ii) tert-butyl hydroperoxide. When ferrous iron is placed in normoxic solution, it autooxidizes to produce ROS in the form of hydroxyl radicals, superoxide anion free radicals, and hydrogen peroxide. Similarly, when tert-butyl hydroperoxide is placed in non-chelated media, trace metals catalyze its oxidation to yield alkoxy, peroxyl, and alkyl free radicals.
(§2) In this assay, either 100 μM FeSO4 or 25 μM tert-butyl hydroperoxide were mixed with 50 μM DCF and 100 μM of the test compound in MEM and the mixture was incubated at 37° C. for 2 hrs. The fluorescence wavelengths measured were 485 nm for excitation and 530 nm for emission. In these tests, N-isopropyl-α-(2-sulfofuran-5-yl)nitrone sodium salt (prepared in Example 1 above) reduced fluorescence by 20% in the Fe^+2 assay and by 13% in the tert-butyl hydroperoxide assay. In comparison, a known free radical trap, N-tert-butyl-α-phenylnitrone (PBN) reduced fluorescence by 48% in the Fe^+2 assay and by 9% in the tert-butyl hydroperoxide assay.

[2] = Free radical trapping, DCF oxidation, tert-butyl hydroperoxide system; assay type: biochemical; settings: 100 μM test compound, 25 μM tert-butyl hydroperoxide, 50 μM DCF in MEM, 37° C., 2 hrs
Protocol: as §1, §2

synthetic Aβ(1-40) = molecular target: T1, synthetic Aβ(1-40) (Homo sapiens, UniProt P05067); assay: Inhibition of Aβ(1-40) beta-pleated sheet formation (ThT fluorescence); assay type: biochemical; settings: 10 μM compound, ThT 3 μM, PBS pH 6.0, 12 hours; for inhibition at 10 µM: read-out: inhibition of Aβ(1-40) beta-pleated sheet formation compared to the controls
T1 construct: 3 μL of Aβ(1-40)(3 μg) prepared with dH2O
Text: The deposition of amyloid β-peptide (Aβ) is associated with the development of Alzheimer's disease. See, for example, G. G. Glenner et al. (1984) Biochem. Biophys. Res. Commun., 120:885-890; and R. E. Tanzi (1989) Ann. Med., 21:91-94. Accordingly, compounds which effectively disrupt the formation of Aβ(1-40) or Aβ(1-42) beta-pleated sheets are potentially useful for preventing and/or reversing such amyloid deposits. Thioflavin T (ThT) is known to rapidly associate with beta-pleated sheets, particularly the aggregated fibrils of synthetic Aβ(1-40). This association gives rise to a new excitation maximum at 440 nm and to enhanced emission at 490 nm.
The experiments were performed using a CytoFluor II fluorescence plate reader having the following parameters:
Into each well was aliquoted 95 μl of ThT (3 μM) prepared in PBS (pH 6.0), 2 μL of the compound to be tested (10 μM) prepared with 0.05% of methylcellulose in PBS (pH 6.0), and 3 μL of Aβ(1-40)(3 μg) prepared with dH2O (the compounds prepared in Examples 1, 3, 4, 5, 6, 7, 8, 9, 11 and 12 were tested). The fluorescence measurement began when the Aβ(1-40) was added and continued for a total of 12 hours. The percent inhibition of beta-pleated sheet formation was calculated from the relative fluorescence unit difference between aggregation in the presence and in the absence of the test compounds.

THP-1 cells = assay: Reduction of β-amyloid-induced increased IL-1β release (ELISA); assay type: cell-based, human; settings: 100 μM test compound with LPS and Aβ25-35, 48 hours
Protocol: THP-1 cells, a human monocyte cell line from American Type Culture Collection, were grown in RPMI-1640 medium plus 10% fetal bovine serum (FBS, not heat-inactivated) in T-flasks. The medium was changed every two days by spinning down (800 rpm, 5 minutes) the cells and added the same fresh medium. Alternatively, the cultures were maintained by the addition of fresh medium. The cultures were maintained at a cell concentration ranging from between 1×10^5 and 1×10^6 cells/mL. Because sera may contain unknown factors which can affect macrophage/monocyte IL-1 production, the FBS was reduced to 5% for 24 hours. The FBS was further reduced to 2% over two days prior to starting each experiment. The cells were collected by centrifugation and resuspended to 2% FBS. Cell numbers were calculated and cells were plated on 24-well plates (3×10^5 cells/0.6 mL/well). Cells were then treated with LPS (0.5 μg/ml or 0-10 μg/ml for LPS dose-response experiments) alone or in combination with Aβ peptides (5 μM or 0.05-5 μM for dose-response experiments). When determining the effect of the test compounds on cytokine release, 100 μM of the test compound was added with the LPS and Aβ25-35 and this mixture was incubated for 48 hours prior to performing ELISA.
IL-1β secretions into medium by LPS-stimulated THP-1 cells, in the presence or absence of amyloid peptides and a test compound, were assayed with a commercially available ELISA kit (R & D Systems). Briefly, a microtiter plate coated with a murine monoclonal antibody to human IL-1β was supplied by the manufacturer. Standards and samples were pipetted into the wells and any IL-1β present was bound by the immobilized antibody. Unbound proteins were washed away and a horseradish peroxidase-linked polyclonal antibody specific for IL-1β was added to the wells to “sandwich”the IL-1β bound in the initial step. […] Color development was stopped with 2 N sulfuric acid and the optical density of the standard and the test samples was measured at 450 nm. The amounts of IL-1β present in the samples were calculated based upon a standard curve. […]

[3] = tested on: primary neuronal/astrocyte cultures; assay: Protection against Aβ(25-35)-induced neuronal cell loss; assay type: cell-based, Sprague Dawley rat; settings: 100 μM test compound, 30 μM Aβ(25-35), 96 hours
Protocol: Patients with Alzheimer's disease are known to suffer a progressive loss of neuronal cells. See, for example, P. J. Whitehause et al., (1982) Science, 215:1237-1239. […] Sprague Dawley rat hippocampus of 18-day-gestation embryos was excised and then dissociated by trituration to prepare primary neuronal/astrocyte cultures. Cells (3×10^5) were plated on 35 mm poly-D-lysine-coated plates containing Eagle's minimum essential medium supplemented with 10% fetal bovine serum. After 3-5 hours, the original medium was removed and replaced with 1 mL of fresh medium. Cultures were maintained at 37° C. in a 5% CO2/95% air humidified incubator.
To the cells (7 DIV) was added 30 μM of Aβ(25-35) dissolved in dH2O (stored at −20° C.) and 100 μM of the test compound (i.e., a compound of Example 1, 3, 4, 5, 6, 7, 8, 12 or 13 above) in 1% methylcellulose. Controls were also conducted without the test compound. The percentage of morphologically viable neurons was determined counting the number of viable neurons after 96 hours treatment compared to the number of neurons before treatment in the same premarked culture regions (three regions/culture, n=6).

T1 sequence (P05067 672-711 limits assumed): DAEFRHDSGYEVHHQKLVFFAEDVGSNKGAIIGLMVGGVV

With `CC(C)(C)[N+]([O-])=Cc1ccccc1` [PBN, N-tert-butyl-α-phenylnitrone, reference compound] the “reduced fluorescence in the Fe^+2 assay” value [1] was 48% and the “reduced fluorescence in the tert-butyl hydroperoxide assay” value [2] was 9%.
In the case of “N-Adamantyl-α-(2-sulfofuran-5-yl)nitrone [Example 8]”, the “inhibition of Aβ(1-40) beta-pleated sheet formation compared to the controls” value (from here on “inhibition … compared to the controls”) (synthetic Aβ(1-40)) is reported as “did not significantly reduce”.
`CCN(CC)S(=O)(=O)c1ccc(C=[N+]([O-])C(C)C)o1` [Example 12, N-Isopropyl-α-[2-(N,N-diethylsulfamoyl)furan-5-yl]nitrone] gave an inhibition at 10 µM (synthetic Aβ(1-40)) of 15 to 71%.
Compound `O=S(=O)(O)c1ccc(C=[N+]([O-])Cc2ccccc2)o1` [Example 9, N-Benzyl-α-(2-sulfofuran-5-yl)nitrone] has an inhibition at 10 µM (synthetic Aβ(1-40)) of 15 to 71%.
`O=S(=O)(O)c1ccc(C=[N+]([O-])C2CCCCC2)o1` [Example 6, N-Cyclohexyl-α-(2-sulfofuran-5-yl)nitrone] gave an inhibition at 10 µM (synthetic Aβ(1-40)) of 15 to 71%.
For `CC(C)[N+]([O-])=Cc1ccc(S(=O)(=O)N2CCOCC2)o1` [Example 11, N-Isopropyl-α-[2-(N-morpholinosulfonyl)furan-5-yl]nitrone], the “reduction of the β-amyloid-induced increased release of interleukin-1β compared to the controls” value (THP-1 cells) was “did not significantly reduce”.
With `CC(C)[N+]([O-])=Cc1ccc(S(=O)(=O)N2CCN(C)CC2)o1.Cl` [Example 15, N-Isopropyl-α-[2-(N-4-methylpiperazin-1-ylsulfonyl)-furan-5-yl]nitrone Hydrochloride] the “reduction of the β-amyloid-induced increased release of interleukin-1β compared to the controls” value (THP-1 cells) was “did not significantly reduce”.
With `CC(C)[N+]([O-])=Cc1ccc(S(=O)(=O)N2CCN(C)CC2)o1` [Example 14, N-Isopropyl-α-[2-(N-4-methylpiperazin-1-ylsulfonyl)furan-5-yl]nitrone] the “reduction of the β-amyloid-induced increased release of interleukin-1β compared to the controls” value (THP-1 cells) was “did not significantly reduce”.
Compound `CCCCCC[N+]([O-])=Cc1ccc(S(=O)(=O)O)o1` [Example 5, N-n-Hexyl-α-(2-sulfofuran-5-yl)nitrone] has an inhibition at 10 µM (synthetic Aβ(1-40)) of 15 to 71%.
`CC(C)(C)CC(C)(C)[N+]([O-])=Cc1ccc(S(=O)(=O)O)o1` [Example 7, N-tert-Octyl-α-(2-sulfofuran-5-yl)nitrone] showed an inhibition at 10 µM (synthetic Aβ(1-40)) of 15 to 71%.
With `CCCC[N+]([O-])=Cc1ccc(S(=O)(=O)O)o1` [Example 3, N-n-Butyl-α-(2-sulfofuran-5yl)nitrone] the “inhibition … compared to the controls” value (synthetic Aβ(1-40)) was “did not significantly reduce”.
With `CC(C)(C)[N+]([O-])=Cc1ccc(S(=O)(=O)O)o1` [Example 4, N-tert-Butyl-α-(2-sulfofuran-5-yl)nitrone] the “inhibition … compared to the controls” value (synthetic Aβ(1-40)) was “did not significantly reduce” and the “reduction of Aβ(25-35)-induced neuronal cell loss compared to the controls” value [3] was “did not significantly reduce”.
